Assays:
[1] = tested on: tracheal ring chain of the guinea-pig; assay: bronchospasmolytic action on the tracheal ring chain of the guinea-pig in vitro (relaxation of stable tonic spontaneous contraction); type: cell-based; conditions: for EC50: Cavia porcellus, EC50 in mol/l, 50% of the maximum relaxation achievable with (-)isoprenaline 10^-6 mol/l, spontaneous contraction, 37° C.; for [EC50]theophylline / [EC50]substance: quotient of EC50 values, theophylline = 1
Protocol: The bronchospasmolytic action of the compounds on the tracheal ring chain of the guinea-pig was tested in vitro as follows: Four parallel tracheal ring chains, each consisting of 6 individual rings, of the guinea-pig (female and male, 430-600 g), in an organ bath [5 ml, Krebs-Henseleit solution with addition of phentolamine (10^-5 mol/l), 37° C., pretension of the organs 2 g, gassing with carbogen] develop a stable, tonic spontaneous contraction after about 20 to 30 minutes. Relaxation can be brought about on these permanently contracted organs under isometric measurement conditions by application of the test substance in a cumulatively semi-logarithmically increasing concentration (e.g. 1×10^-6 +2×10^-6 +7×10^-6 +2×10^-5etc. mol/l), a constant relaxation response being awaited after each individual dose of the test substance before the next higher concentration is applied. A complete dose/effect curve of the test substance is thus obtained over a period of 20 to 30 minutes. The particular relaxation is expressed as the percentage fraction of the maximum relaxation which can be achieved by addition of (-)isoprenaline (10^-6 mol/l).

PDE IV [2] = assay: inhibition of PDE IV from the canine trachea; type: biochemical; conditions: for [IC50]theophylline / [IC50]substance: PDE IV canine trachea, quotient of IC50 values, theophylline = 1; for -log[IC50] PDE IV canine trachea: cAMP 0.5 μmol/l, 37° C., 20 minutes
From the text: (§1) The inhibition of phosphodiesterases of classes III (PDE III=high-affinity cAMP-PDE which can be inhibited by cGMP) and IV (PDE IV=high-affinity cAMP-PDE which cannot be inhibited by cGMP, Rolipram-sensitive) is regarded as being particularly conclusive for a bronchospasmolytic and/or antiinflammatory action which may be expected [H. Hidaka et al., Adv. Cycl. Nucl. Res. 13, 145 (1984); Tips 5, 237 (1984); R. Weishaar et al., J. Med. Chem. 28, 537 (1985); S. A. Harrison et al., Molec. Pharmac. 29, 506 (1986); J. Klein-Tebbe et al., Allergologie 12, 12 (1989); C. Schudt et al., Allergologie 12, 12 (1989)].
(§2) The PDE inhibition of the compounds according to the invention was therefore determined on a PDE III isolated from human platelets and PDE IV isolated from human neutrophilic polymorphonuclear cells (PMNs) and from the canine trachea. The phosphodiesterases III and IV are isolated by chromatography by the method of Polson et al., Biochem. Pharmacol. 31, 3403-3406 (1982).
(§3) The substances are dissolved in DMSO and diluted further. From a series of solutions diluted up to a hundred-fold, 2.1 μl portions are taken and 212 μl reaction mixture are added. The reaction mixture contains Hepes (100 mmol/l), DTE (5 mmol/l), MgCl2 (5 mmol/l), CaCl2 (10 μmol/l), BSA fraction V 0.5 mg/ml, cAMP 0.5 μmol/l, 2,8-^3 H-cAMP 250,000 cpm/ml (0.3 μCi/ml, s.a. 33.5 μCi/mmol) and SV (snake venom) (25 μg/212 μl test batch).
(§4) The reaction is started by addition of 10 μl PDE to the reaction mixture and to the substance batch. The mixtures are then incubated at 37° C. for 20 minutes. The reaction is stopped by heating at 95° C. for 45 seconds. After the samples have cooled, the SV solution is added, the 5-AMP formed being cleaved. After incubation for 30 minutes at 37° C., this reaction is stopped by addition of 1 ml anion exchanger suspension. The cAMP which remains is thereby bonded. The adenosine formed remains in the supernatant after centrifugation and can be measured in an aliquot by the radioactivity contained therein.

PDE III = target: T1, PDE III (Homo sapiens, UniProt Q14432); assay: inhibition of PDE III isolated from human platelets; type: biochemical; conditions: for [IC50]theophylline / [IC50]substance: PDE III, quotient of IC50 values, theophylline = 1; for IC50: human platelets, cAMP 0.5 μmol/l, 37° C., 20 minutes, read-out: -log[IC50] PDE III (converted)
T1 construct: PDE III isolated from human platelets; from tissue; host or cells: human platelets
T1 sequence (Q14432 whole entry): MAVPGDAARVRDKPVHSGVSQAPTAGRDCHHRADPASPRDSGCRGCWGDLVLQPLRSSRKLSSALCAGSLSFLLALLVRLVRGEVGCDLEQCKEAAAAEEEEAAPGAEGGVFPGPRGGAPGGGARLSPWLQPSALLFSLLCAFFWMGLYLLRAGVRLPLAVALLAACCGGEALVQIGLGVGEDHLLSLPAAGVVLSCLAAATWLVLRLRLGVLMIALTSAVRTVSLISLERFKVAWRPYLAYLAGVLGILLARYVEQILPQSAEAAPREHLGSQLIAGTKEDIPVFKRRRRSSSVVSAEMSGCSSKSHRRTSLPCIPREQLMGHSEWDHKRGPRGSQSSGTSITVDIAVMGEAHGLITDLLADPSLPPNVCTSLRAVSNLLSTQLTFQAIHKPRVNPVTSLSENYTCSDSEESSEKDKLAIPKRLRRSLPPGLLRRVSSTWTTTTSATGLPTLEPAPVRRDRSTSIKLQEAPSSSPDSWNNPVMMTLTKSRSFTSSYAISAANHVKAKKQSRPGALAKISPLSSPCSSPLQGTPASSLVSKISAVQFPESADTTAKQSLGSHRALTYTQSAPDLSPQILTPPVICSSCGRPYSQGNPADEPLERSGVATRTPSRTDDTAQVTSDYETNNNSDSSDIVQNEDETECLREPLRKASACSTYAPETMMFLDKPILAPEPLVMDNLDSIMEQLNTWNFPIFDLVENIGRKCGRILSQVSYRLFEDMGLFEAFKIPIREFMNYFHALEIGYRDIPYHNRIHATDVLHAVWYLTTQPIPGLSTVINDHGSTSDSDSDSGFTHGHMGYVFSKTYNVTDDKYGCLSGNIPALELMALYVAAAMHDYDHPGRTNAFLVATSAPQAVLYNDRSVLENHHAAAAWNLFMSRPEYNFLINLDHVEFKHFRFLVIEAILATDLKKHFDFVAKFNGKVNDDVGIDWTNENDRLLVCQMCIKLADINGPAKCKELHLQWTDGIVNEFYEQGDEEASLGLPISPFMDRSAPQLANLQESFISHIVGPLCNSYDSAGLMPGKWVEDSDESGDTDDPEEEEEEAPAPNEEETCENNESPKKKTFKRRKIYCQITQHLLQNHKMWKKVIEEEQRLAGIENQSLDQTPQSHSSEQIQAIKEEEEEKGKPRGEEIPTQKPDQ
From the text: as §1, §2, §3, §4

PDE IV [3] = assay: inhibition of PDE IV from human neutrophilic polymorphonuclear cells (PMNs); type: biochemical; conditions: for [IC50]theophylline / [IC50]substance: PDE IV human PMNs, quotient of IC50 values, theophylline = 1; for -log[IC50] PDE IV PNMs: human neutrophilic polymorphonuclear cells, cAMP 0.5 μmol/l, 37° C., 20 minutes
From the text: as §1, §2, §3, §4

[4] = tested on: acetylcholine-induced bronchospasm; assay: protective action against acetylcholine-induced bronchospasm on the conscious guinea-pig; type: in vivo; conditions: Cavia porcellus, 0.5 h; verum, oral, 100 μmol/kg, 30 minutes after administration; protected = latency period at least three times; read-out: Number of animals protected/number of animals used (converted)
Protocol: The bronchospasmolytic action was additionally tested on the model of "Protective action against acetylcholine-induced bronchospasm on the conscious guinea-pig":
Guinea-pigs (250-350 g) are exposed in a closed Plexiglas cylinder (volume 5 l) to an acetylcholine mist (0.06% in 0.9% sodium chloride solution; ultrasonic mister Heyer Use 77) twice before administration of the substance at an interval of 20 minutes, and 30 minutes after administration of the substance. The time from the start of misting to the onset of clear respiratory exertion (under certain circumstances hypoxic convulsions in the lateral position) is measured and defined as the latency period. A prolonging of the latency period after administration of the substance to at least three times the average latency period before administration of the substance is regarded as a protective action, and the number of protected animals in the group is stated. The test substances are administered orally by means of a stomach tube (dose 100 μmol/kg, volume 1 ml/kg, suspending agent 4% Methocel suspension in 0.9% sodium chloride solution).
The test substance is administered perorally by means of a stomach tube (standard dose 100 μmol, volume 1 ml 4% Methocel suspension in 0.9% sodium chloride solution/kg). After 30 minutes, the animals are exposed to the acetylcholine mist again and the latency periods are measured. Prolonging of the latency period to at least three times the length is regarded as a protective action.

Row | SMILES | EC50 [1] | [EC50]theophylline / [EC50]substance [1] | [IC50]theophylline / [IC50]substance (PDE IV [2]) | -log[IC50] PDE IV canine trachea (PDE IV [2]) | [IC50]theophylline / [IC50]substance (PDE III) | IC50 (PDE III) | [IC50]theophylline / [IC50]substance (PDE IV [3]) | -log[IC50] PDE IV PNMs (PDE IV [3]) | responders at 100 µmol/kg [4]
1 | CCCOc1ccc(-c2ccc(NC#N)nn2)cc1OC [Compound 1, 3-Cyanamino-6-(3-methoxy-4-n-propoxyphenyl)pyridazine] | 5620 nM | 24.0 | – | – | – | – | – | – | –
2 | CCOc1cc(-c2ccc(NC#N)nn2)ccc1OC [Compound 2, 3-Cyanamino-6-(3-ethoxy-4-methoxyphenyl)pyridazine] | 3020 nM | 44.7 | 95.6 | 5.79 | 15.5 | 10500 nM | – | – | –
3 | COc1cc(-c2ccc(NC#N)nn2)ccc1OCC(C)C [Compound 5, 3-Cyanamino-6-[3-methoxy-4-(2-methylpropoxy)phenyl]pyridazine] | 3550 nM | 38.1 | – | – | – | – | – | – | –
4 | COc1cc(-c2ccc(NC#N)nn2)ccc1OC(C)C [Compound 6, 3-Cyanamino-6-[3-methoxy-4-(1-methylethoxy)phenyl]pyridazine] | 8130 nM | 16.6 | – | – | 25.7 | 6310 nM | – | – | –
5 | CCOc1ccc(-c2ccc(NC#N)nn2)cc1OC [Compound 7, 3-Cyanamino-6-(4-ethoxy-3-methoxyphenyl)pyridazine] | 6460 nM | 20.9 | 32.4 | 5.32 | 18.2 | 8910 nM | – | – | –
6 | COc1cc(-c2ccc(NC#N)nn2)ccc1OC(F)F [Compound 8, 3-Cyanamino-6-(4-difluoromethoxy-3-methoxyphenyl)pyridazine] | 1860 nM | 72.5 | 70.8 | 5.66 | – | – | – | – | –
7 | COc1ccc(-c2ccc(NC#N)nn2)cc1OC(F)F [Compound 9, 3-Cyanamino-6-(3-difluoromethoxy-4-methoxyphenyl)pyridazine] | 2340 nM | 57.6 | 69.2 | 5.65 | 13.2 | 12300 nM | – | – | –
8 | COc1ccc(-c2ccc(NC#N)nn2)cc1OC [Compound 10, 3-Cyanamino-6-(3,4-dimethoxyphenyl)pyridazine] | 7080 nM | 19.1 | 74.1 | 5.68 | 15.1 | 10700 nM | – | – | –
9 | COc1ccc(-c2ccc(NC#N)nn2)cc1OC1CCCC1 [Compound 11, 3-Cyanamino-6-(3-cyclopentyloxy-4-methoxyphenyl)pyridazine] | 562 nM | 240 | 120 | 5.89 | – | – | 288 | 6.22 | –
10 | CCOc1ccc(-c2ccc(NC#N)nn2)cc1OC(F)F [Compound 14, 3-Cyanamino-6-(3-difluoromethoxy-4-ethoxyphenyl)pyridazine] | 2040 nM | 66.1 | – | – | – | – | 85.1 | 5.69 | –
11 | COc1ccc(-c2ccc(NC#N)nn2)cc1OCC1CCC1 [Compound 15, 3-Cyanamino-6-(3-cyclobutylmethoxy-4-methoxyphenyl)pyridazine] | 912 nM | 148 | 77.7 | 5.70 | – | – | – | – | –
12 | CC(C)Oc1cc(-c2ccc(NC#N)nn2)ccc1OC(F)F [Compound 16, 3-Cyanamino-6-[4-difluoromethoxy-3-(1-methylethoxy)phenyl]pyridazine] | 661 nM | 204 | – | – | – | – | 550 | 6.50 | 50%
13 | N#CNc1ccc(-c2ccc(OC(F)F)c(OC3CCCC3)c2)nn1 [Compound 17, 3-Cyanamino-6-(3-cyclopentyloxy-4-difluoromethoxyphenyl)pyridazine] | 759 nM | 178 | – | – | – | – | 513 | 6.47 | –
14 | N#CNc1ccc(-c2ccc(OC(F)F)c(OCC3CC3)c2)nn1 [Compound 18, 3-Cyanamino-6-(3-cyclopropylmethoxy-4-difluoromethoxyphenyl)pyridazine] | 562 nM | 240 | – | – | – | – | 759 | 6.64 | 50%
15 | CC(C)COc1cc(-c2ccc(NC#N)nn2)ccc1OC(F)F [Compound 19, 3-Cyanamino-6-[4-difluoromethoxy-3-(2-methylpropoxy)phenyl]pyridazine] | 1410 nM | 95.6 | – | – | – | – | 525 | 6.48 | –
16 | N#CNc1ccc(-c2ccc(OC(F)F)c(OCC(F)(F)F)c2)nn1 [Compound 20, 3-Cyanamino-6-[4-difluoromethoxy-3-(2,2,2-trifluoroethoxy)phenyl] pyridazine] | 2290 nM | 58.9 | – | – | – | – | 148 | 5.93 | 55%
17 | N#CNc1ccc(-c2ccc(OCC3CC3)c(OC(F)F)c2)nn1 [Compound 21, 3-Cyanamino-6-(4-cyclopropylmethoxy-3-difluoromethoxyphenyl)pyridazine] | 1000 nM | 135 | – | – | – | – | – | – | –
